According to the OligoGym collection:
“And” between values parts separate entries of the source, which are not always exact repeats. Equal entries are not always repeated. After the bases stand the sugars from the 5' end (letter, count) and the backbone: PS all phosphorothioate, else s phosphorothioate and o phosphodiester by linkage. Methylation of C is not given here. k = constrained ethyl (cEt); d = 2'-deoxy (DNA)

target: MALAT1; conditions: ASO, A431, 0.005 µM

| Sequence | target mRNA inhibition |
| --- | --- |
| CCTATCTTCACCACGA (sugars k3 d10 k3, PS) | 6% |
| CAGTACGAAACTCCCC (sugars k3 d10 k3, PS) | 30% |
| CCACACACTACCATAT (sugars k3 d10 k3, PS) | 17% |
| CTATCTTCTATACTTC (sugars k3 d10 k3, PS) | 24% |
| TAAAGTAGACCAACTA (sugars k3 d10 k3, PS) | 14% |
| TTAAATGACGCAATTC (sugars k3 d10 k3, PS) | 4% |
| AAAAGCTTGTTCACCT (sugars k3 d10 k3, PS) | 21% |
| CTTATGGAACTTGAAT (sugars k3 d10 k3, PS) | -5% |
| AAACGGGTCATCAAAC (sugars k3 d10 k3, PS) | 19% |
| CGAGTTCAAGTGGCCT (sugars k3 d10 k3, PS) | 18% |
| AACCAGGAGTGCCAAC (sugars k3 d10 k3, PS) | -23% |
| CCAATGGACATCTCTT (sugars k3 d10 k3, PS) | 40% |
| TTAATGTAGTGTAACA (sugars k3 d10 k3, PS) | 30% |
| AATTAAATTGATGGGC (sugars k3 d10 k3, PS) | 17% |
| TCAAGTCAAGCTCCTG (sugars k3 d10 k3, PS) | 3% |
| AATCGGAGCAGCACGG (sugars k3 d10 k3, PS) | 26% |
| TTCCCTATATAAGGTC (sugars k3 d10 k3, PS) | 6% |
| ACATGCAATACTGCAG (sugars k3 d10 k3, PS) | 3% |
| GTAACAGGCCACTGCC (sugars k3 d10 k3, PS) | 14% |
| CTGATTATCCTGATAT (sugars k3 d10 k3, PS) | 33% |
| TGTTCGAGAAATCGGA (sugars k3 d10 k3, PS) | 17% |
| AGGGATTTGAACCCCG (sugars k3 d10 k3, PS) | -3% |
| CCGGAACTTTTAAAAT (sugars k3 d10 k3, PS) | 13% |

| Sequence | target mRNA inhibition |
| --- | --- |
| CTTTTAATCATACTCC (sugars k3 d10 k3, PS) | 16% |
| TAAGTTGGTTTTAGTC (sugars k3 d10 k3, PS) | 78% and 92% |
| CTCAGTTACACATCCA (sugars k3 d10 k3, PS) | 70% and 94% |
| ATCAACAAAAGCCCAC (sugars k3 d10 k3, PS) | -12% |
| ACTAGTGGTTCCCAAT (sugars k3 d10 k3, PS) | 33% |
| CTGATAACGAAGAGAT (sugars k3 d10 k3, PS) | -3% |
| ACTCCCCCCCGCCTCA (sugars k3 d10 k3, PS) | 26% |
| TGGTACACCCAGTGGC (sugars k3 d10 k3, PS) | 17% |
| GTTTACCACCTTTTGA (sugars k3 d10 k3, PS) | 3% |
| TACACCCAGTGGCTCA (sugars k3 d10 k3, PS) | 30% |
| CATTAAAGAGTGTTCG (sugars k3 d10 k3, PS) | 34% |
| GATTTTTACCAACCAC (sugars k3 d10 k3, PS) | 42% |
| ATCTGATTCTAACAGC (sugars k3 d10 k3, PS) | 40% |
| GCATGTAAGAATTAAG (sugars k3 d10 k3, PS) | 28% |
| ACAACATATTGCCGAC (sugars k3 d10 k3, PS) | 10% |
| TAGGCTTTAAATGACG (sugars k3 d10 k3, PS) | 26% |
| TGAAGTGTACTATCCC (sugars k3 d10 k3, PS) | 72% and 88% |
| TCATGGATTTCAAGGT (sugars k3 d10 k3, PS) | 51% |
| TGCCTTTAGGATTCTA (sugars k3 d10 k3, PS) | 45% |
| AACCCCCAGTTCAATA (sugars k3 d10 k3, PS) | 20% |
| CTTCTGCACCACCAGA (sugars k3 d10 k3, PS) | 13% |
| TACACCTCAGTACGAA (sugars k3 d10 k3, PS) | 28% |
| GCACTGGTACACCCAG (sugars k3 d10 k3, PS) | -9% |

| Sequence | target mRNA inhibition |
| --- | --- |
| TCCCATAACTGATCTG (sugars k3 d10 k3, PS) | 31% |
| AGTTTACCACCTTTTG (sugars k3 d10 k3, PS) | 23% |
| ACTTATCAATTCACCA (sugars k3 d10 k3, PS) | 28% |
| AAGATATTGTGCTGTT (sugars k3 d10 k3, PS) | 13% |
| ACAAGGATCCAAGCTA (sugars k3 d10 k3, PS) | -7% |
| TATTCCAGGATTAATG (sugars k3 d10 k3, PS) | 29% |
| CCAGTAGGCCAGACCA (sugars k3 d10 k3, PS) | 13% |
| TTACTTTCCATTACGC (sugars k3 d10 k3, PS) | 16% |
| CACTTTCCTTGCCCAA (sugars k3 d10 k3, PS) | 69% and 61% |
| AGACCCCTGACTTTCT (sugars k3 d10 k3, PS) | 22% |
| TAGACCAACTAAGCGA (sugars k3 d10 k3, PS) | -9% |
| ACATTCAAGCTGAACT (sugars k3 d10 k3, PS) | -5% |
| TTATCCCTAACATGCA (sugars k3 d10 k3, PS) | 8% |
| CGGGATCAGAACAGTA (sugars k3 d10 k3, PS) | 24% |
| AATAGCAGCGGGATCA (sugars k3 d10 k3, PS) | 34% |
| ATTAAAGTGTGATAGT (sugars k3 d10 k3, PS) | 17% |
| CGCTTTCCCTGTGGCC (sugars k3 d10 k3, PS) | -2% |
| ACCCAGAAGTGTTTAC (sugars k3 d10 k3, PS) | 16% |
| AACTCCCCCATTATAT (sugars k3 d10 k3, PS) | -1% |
| ATCAGAACAGTACTGC (sugars k3 d10 k3, PS) | 35% |
| AACATAGTTCAACCCA (sugars k3 d10 k3, PS) | 12% |
| TTGGCCTACTCAAGCT (sugars k3 d10 k3, PS) | -8% |
| TCGGTGCCTTTAGTGA (sugars k3 d10 k3, PS) | 29% |

| Sequence | target mRNA inhibition |
| --- | --- |
| AATATTTGCCCCTCCC (sugars k3 d10 k3, PS) | 15% |
| CCACTTACTGGTTTAA (sugars k3 d10 k3, PS) | 33% |
| CACCCAGAAGTGTTTA (sugars k3 d10 k3, PS) | -4% |
| ATCCCTTCAGGATCAT (sugars k3 d10 k3, PS) | 19% |
| CATCAGAAGAAATCCC (sugars k3 d10 k3, PS) | 17% |
| TGACCCTACTGAAGAG (sugars k3 d10 k3, PS) | 21% |
| GCTGAACTATCACAAT (sugars k3 d10 k3, PS) | 27% |
| TGATCCCAACTCATCT (sugars k3 d10 k3, PS) | 14% |
| GTACTATCCCATCACT (sugars k3 d10 k3, PS) | 33% |
| ATTGTTTCATCCTACC (sugars k3 d10 k3, PS) | 22% |
| ACAAGTCCTACAATTT (sugars k3 d10 k3, PS) | 31% |
| TCCTCAATCCACTTGA (sugars k3 d10 k3, PS) | 44% |
| TGCTACTCTTCTAAGT (sugars k3 d10 k3, PS) | 19% |
| AAATCGCCATGGAAAG (sugars k3 d10 k3, PS) | 1% |
| CCGTTGGCTGCCAGTG (sugars k3 d10 k3, PS) | 6% |
| AAGGCTCGATGGAAAA (sugars k3 d10 k3, PS) | 7% |
| TAATCTCCCACCTGTC (sugars k3 d10 k3, PS) | 7% |
| GACTGCTTAAAACTGC (sugars k3 d10 k3, PS) | 36% |
| GCCCACAAGGATCCAA (sugars k3 d10 k3, PS) | 15% |
| TTCCGTTACGAAAGTC (sugars k3 d10 k3, PS) | 33% |
| ACACTGGTTCCTGGAA (sugars k3 d10 k3, PS) | 48% |
| CAGGATCATTAAGCCA (sugars k3 d10 k3, PS) | 42% |
| ACTGATCACTTTAGAG (sugars k3 d10 k3, PS) | 36% |

| Sequence | target mRNA inhibition |
| --- | --- |
| AGAACAACTCGCATCA (sugars k3 d10 k3, PS) | 12% |
| GGTTTTATCTAAATAC (sugars k3 d10 k3, PS) | 25% |
| CGGAATTCGATCACCT (sugars k3 d10 k3, PS) | 19% |
| ATAGTACTATAGCATC (sugars k3 d10 k3, PS) | 30% |
| TCCCCCCCAAGATTGC (sugars k3 d10 k3, PS) | -3% |
| CTGCACTGTGCTGTAC (sugars k3 d10 k3, PS) | -5% |
| TGCATCGAGGTGAGGG (sugars k3 d10 k3, PS) | 21% |
| CTGCAGAGTTTGAGTG (sugars k3 d10 k3, PS) | -19% |
| CTCTGATCATAATCTC (sugars k3 d10 k3, PS) | 35% |
| TCCCCTTCAAGCACCG (sugars k3 d10 k3, PS) | 19% |
| TCGCCTCCTCCGTGTG (sugars k3 d10 k3, PS) | 33% |
| GCCGCAGGGATTTGAA (sugars k3 d10 k3, PS) | 31% |
| CTAACATAGTTCAACC (sugars k3 d10 k3, PS) | 16% |
| GATACCTGTCTGAGGC (sugars k3 d10 k3, PS) | 33% |
| TGAGATGGACATTGCC (sugars k3 d10 k3, PS) | 74% and 92% |
| CATGGAAAGCGAGTTC (sugars k3 d10 k3, PS) | 20% |
| CATAGTTCAACCCACC (sugars k3 d10 k3, PS) | 35% |
| TTGAAACCGATTATGG (sugars k3 d10 k3, PS) | 42% |
| CCAAATTGCACTCGCT (sugars k3 d10 k3, PS) | 36% |
| TAACTAGGCTTTAAAT (sugars k3 d10 k3, PS) | 14% |
| ATTGGAGATCAGCTTC (sugars k3 d10 k3, PS) | 52% |
| TTCCGCCGCCTCTTAA (sugars k3 d10 k3, PS) | 22% |
